In patent US20250152605A1, “METHOD AND DRUG FOR TREATING NEURONAL CEROID LIPOFUSCINOSIS” (priority 2021, published 2025):

How the values were obtained:
mice's neurons = experiment: qRT-PCR of autophagy-related and lysosomal genes in mouse neurons; assay type: cell-based; conditions: 6 hours
Protocol: (§1) The cells in the cell-culture dish were collected, extracted using AxyPrep Total RNA Mini Prep Kit or Qiagen AxyPrep Total RNA Mini Prep Kit, and the extracted RNA concentration is measured using Nanodrop; the extracted mRNA was reverse transcribed into cDNA by Transgen's EasyScript® One-Step gDNA Removal and cDNA Synthesis SuperMix and the primers used for reverse transcription were Oligo dT primers; the completion of reverse transcription followed by qRT-PCR reaction through PerfectStart™ Green qPCR SuperMix to detect the expression of the target gene; the qRT-PCR reaction was performed on the Bio-Rad CFX96 Real-Time PCR system; see Table 2 and Table 3 for the 20 μL qRT-PCR reaction system and reaction procedures; data analysis was performed in Prism 7 software using the 2^−ΔΔCt process with GAPDH as internal reference for relative quantification of the expression of the target gene.
After treating primary (a) neural stem cells and (b) neurons of Cln3 KO) mice for 6 hours, the mRNA was extracted from the cells, reverse-transcribed into cDNA, and transcription levels of autophagy- and lysosome-related genes were detected using qRT-PCR (n=3).
It was speculated from this that the known target FXR of Compound G was expressed at low or no levels in neural lineage cells. […]

NRF2 downstream genes = experiment: qRT-PCR of NRF2 downstream genes; assay type: cell-based; conditions: CLN3^Δex7/8 human neural stem cells, 6 hours
Protocol: as §1
Primers were further designed, verification of qRT-PCR was conducted on the above activated genes in the downstream of NRF2. After treating CLN3^Δex7/8 human neural stem cells with Compound G for 6 hours, the cells were collected and mRNA was extracted for detecting the expression level of the genes.

CLN3^Δex7/8 neurons [1] = experiment: Mitochondrial autophagy level (mtDNA/nDNA after CCCP and Baf-A1); assay type: cell-based, human; conditions: CCCP-induced mitochondrial damage
Protocol: The medium in the cell culture plate was aspirated and the cells were digested after washing once with dPBS. After stopping the digestion with cell medium, the supernatant was removed by centrifugation and the cells were resuspended with 200 μL dPBS. DNeasy®) Blood & Tissue Kit was used to extract DNA from cells. Then, referring to the qRT-PCR system and reaction procedure in Tables 2 and 3, the qRT-PCR reaction was performed using the extracted DNA instead of the cDNA. Data analysis was performed in Prism 7 software using the 2^ΔΔCt process with genomic gene b2M as internal reference for relative quantification of the number of mitochondrial sequences MinArc. Primers for determining intracellular mitochondria number were as follows:
Damaged mitochondria within a cell can be eliminated through an autophagic process named mitochondrial autophagy. Functional defects in autophagy affect the elimination of damaged mitochondria, which in turn disrupts mitochondrial homeostasis in neurons. After inducing mitochondrial damage in wild-type and CLN3^Δex7/8 neurons using the mitochondrial uncoupler CCCP, and then inhibiting the elimination of damaged mitochondria by Baf-A1, the increases of intracellular mitochondrial number (mtDNA/nDNA) after Baf-A1 treatment can represent the intracellular mitochondrial autophagy level.

CLN3^Δex7/8 neurons [2] = experiment: Intracellular relative ATP content (Cell Titer Glo); assay type: cell-based, human; conditions: same number of CLN3^Δex7/8 neurons
Protocol: Neural stem cells or neurons were digested into single cells and were counted using a hemocytometer. The cell suspension was then diluted to the same cell concentration (10^5˜10^6/mL). 100 μL of cell suspension was taken out into a white 96-well analysis plate, and 100 μL of CellTiter-Lumi™ Steady Plus reagent that had been equilibrated to room temperature was added, shaken to mix, and incubated at room temperature for 15 minutes. The chemiluminescence intensity of the sample was then read using a multifunctional microplate reader to indicate the intracellular relative ATP content.
To test the effect of compound G on mitochondrial homeostasis in CLN3^Δex7/8 neurons, fluorescently labeled mitochondrial outer membrane protein OMP25-GFP was overexpressed in neurons, and the morphological changes of mitochondria were observed by laser confocal microscope. […] The amount of ATP generation in the same number of neurons was tested using Cell Titer Glo reagent.

[3] = Drug concentration in mouse brain tissue (UPLC-MS/MS); assay type: in vivo; conditions: Cln3 KO mice
Protocol: In order to determine whether Compound G can pass through the blood-brain barrier and its drug concentration in the brain tissue of mice, the following experiment was performed: Compound G was dissolved in drinking water at a concentration of 1 mg/mL and fed to mice, and a solvent was added to the drinking water of control mice; mice treated with Compound G were removed at 8 different random time points, and after Avertin anesthesia, their hearts were perfused with 20 mL dPBS to rinse the blood in the mice; non-dosed mice were also perfused in the same manner as blank tissue; whole mouse brain tissue was removed, weighed, snap frozen in liquid nitrogen and ground using Mixer Mill (RETSCH MM400) with a shaking frequency of 26 beats/sec for 5 minutes; a small molecule with similar structural properties to Compound G was prepared in advance as an internal reference (denoted IS) and IS was dissolved in 80% aqueous methanol to 100 ng/ml. […]
After using dPBS to completely perfuse the systemic blood, the mice were euthanized and the brain tissues thereof were taken out. The drug concentrations of Compound G in the mouse brain tissues were measured.

C/C=C1\C(=O)C[C@H]2[C@@H]3CCC4=CC(=O)CC[C@]4(C)[C@H]3CC[C@]12C [Compound G, (Z)-guggulsterone]
transcription level of the autophagy-related genes or the lysosomal genes (mice's neurons): did not significantly increase
expression level of most NRF2 downstream genes (NRF2 downstream genes): significantly increase
mitochondrial autophagy (increase of mitochondrial number mtDNA/nDNA after Baf-A1) (CLN3^Δex7/8 neurons [1]): rescue mitochondrial autophagy
capacity of ATP generation (CLN3^Δex7/8 neurons [2]): significantly increased
average concentration in the mouse brain ([3]; 1 mg/mL in drinking water, different time points (n=8)): 814.74±834.19 ng/g brain tissue
penetration of the blood-brain barrier ([3]; drinking water): could penetrate the blood-brain barrier
